In assay [1] the test system is isolated microspores of Cucumis sativus. Briefly: Isolated microspore culture (IMC) of cucumber with HDACi and/or polyamine: formation and classification of multicellular structures. The following applies: for Classification of the multicellular structures / Response (% of formation of multicellular structures): no polyamine. It is filed as cell-based. As for the experimental part:
The solution of microspore is diluted to a concentration of about 30,000-150,000 cells/mL using a haemocytometer to count the microspore density. This is done in a Microspore Embryogenesis Induction Medium (MEIM), which components are described in Table 7. The solution is aliquoted by 4-6 mL into 60 mm×50 mm petri plates and sealed, for a heat shock of 24-72 hour at 30-33° C. in the dark.
The isolated microspores are then cultured in the dark at 22-28° C. for about four to five weeks until globular embryos can be seen by bare eyes.
The MEIM medium complemented with polyamine is referred to as a Microspore embryo development medium (MEDM) which components are described in Table 7.
One will note that the Response % is the percentage of formation of multicellular structures, not the analysis or classification of such structures as normal or abnormal. The last column (classification of the multicellular structures) reflects the observation of the multicellular structures according to criteria which defines whether they are normal or abnormal, i.e. uniformity of the cells, and compactness of the multicellular structures.

The subject of a further assay is isolated microspores. Briefly: Test of various compounds within the IMC media (all with SAHA 10 μM). It is filed as cell-based, Cucumis sativus. The note with it: in association with SAHA. On the procedure:
Isolated microspores are obtained according to the method described in Example 2, and cultured. […] All media comprise M404 basal medium and carbohydrates as in the MEIM composition described in Table 7, supplemented with 10 μM SAHA plus various other additional compounds. “Event” represents embryogenic callus or embryos.
The microspore cultures are evaluated for their production of multicellular structures and/or normal embryos.

For the next assay, the system named is globular embryos. Briefly: Elongation of globular embryos (bilayer culture system). The note with it: in liquid embryo culture medium. It is filed as cell-based, Cucumis sativus. From the text:
In one embodiment, the LECM comprises one or more HDACi and/or one or more polyamines, preferably both HDACi and polyamine. The HDACi and/or the polyamine can be selected from the above lists, and can be present in any of the aforementioned quantities, in the LECM. In certain embodiments, the LECM further comprises plant growth regulators, in particular selected from auxins, cytokinins, gibberellins, abscisic acid, and mixtures thereof. In a preferred embodiment, the LECM comprises abscisic acid, in an amount effective to enable the development of the embryos. In particular, the LECM comprises from 0.5 to 5 ppm abscisic acid, still preferably from 1 to 2 ppm abscisic acid.
Globular embryos are visible after 20 to 40 days of culture in MEDM medium. To obtain elongated embryos, the inventors have used a bilayer culture system on a rotary shaker at 50-70 rpm in the dark for about 30 day, which has enabled the elongation of the embryos (FIG. 2E to 2G). The bilayer culture system is made of two layers, one lower solid medium made of MEEM with activated charcoal and solidified with 7 g/L agar (see Table 7) and one upper liquid medium, still made of MEDM supplemented with 1-2 ppm abscisic acid and containing the embryos to be elongated.

The record followed here is patent US11026381B2, “Method for producing haploid, dihaploid and doubled haploid plants by isolated microspore culture” (Vilmorin & Cie, priority 2015, dated 2021).

With `CC(/C=C/C(=O)NO)=C\[C@@H](C)C(=O)c1ccc(N(C)C)cc1` [TSA, trichostatin A], the “response compared with SAHA” value in assay [1] (another HDACi tested in isolated microspore culture) is recorded as “lower response than for the SAHA”. In assay [1] (cultivar PI518848, TSA 0.5 μM), the “Classification of the multicellular structures” value was “Abnormal” and the “Response (% of formation of multicellular structures)” value is recorded as 4.3%.

As to `NCCCCN` [Putrescine, putrescine], in the assay with isolated microspores, the “development of normal embryos from the isolated microspores” value is given as “enable the development of normal embryos”.

Take `O=C(CCCCCCC(=O)Nc1ccccc1)NO` [SAHA, suberoylanilide hydroxamic acid]: the “Classification of the multicellular structures” value in assay [1] (cultivar HMX4453, SAHA 10 μM) is reported as “Abnormal”; in assay [1] (cultivar PI518848, SAHA 5 μM), “Abnormal”; in assay [1] (cultivar PI518848, SAHA 10 μM) it was “Abnormal”. The “Response (% of formation of multicellular structures)” value in assay [1] (cultivar HMX4453, SAHA 10 μM) was 9.6%; in assay [1] (cultivar PI518848, SAHA 5 μM) it was 13.7%; in assay [1] (cultivar PI518848, SAHA 10 μM), 17.3%. Further, the multicellular microspore formations entry in assay [1] (isolated microspore cultures with SAHA but without polyamine) was “more present but are abnormal”.

For `CC1=CC(=O)CC(C)(C)[C@@]1(O)/C=C/C(C)=C\C(=O)O` [Abscisic acid, abscisic acid], the “effect on elongation of the embryos” value in the assay with globular embryos was “positive effect”.
